# Test results as given in ChEMBL document CHEMBL1153134, “Dammarane-type saponins from the flower buds of Panax ginseng and their effects on human leukemia cells” (Bioorg Med Chem Lett, 2010).
# pIC50: −log10 of the molar value. Activity calls are given as the source filed them. The rule behind the calls is not given here.
# Assays:
# HL-60 [1] = test: Induction of apoptosis in human HL60 cells assessed as increase of apoptotic bodies at IC50 concentration after 24 hrs using Hoechst 33342 staining by fluorescent microscopic analysis; type: functional, cell-based
# HL-60 [2] = test: Cytotoxicity against human HL60 cells by MTT assay; type: functional, cell-based
# HL-60 [3] = test: Induction of apoptosis in human HL60 cells assessed as DNA accumulation at sub-G1 phase at IC50 concentration after 24 hrs by flow cytometry; type: functional
# HaCaT = test: Inhibition of ultraviolet-B-induced apoptosis in human HaCaT cells; type: functional, cell-based
Compound,Activity (HL-60 [1]),pIC50 (HL-60 [2]),Activity (HL-60 [3]) [%],Activity (HaCaT)
C=C(C)C(=O)CC[C@](C)(O[C@@H]1O[C@H](CO)[C@@H](O)[C@H](O)[C@H]1O)[C@H]1CC[C@]2(C)[C@@H]1[C@H](O)C[C@@H]1[C@@]3(C)CC[C@H](O)C(C)(C)[C@@H]3[C@@H](O)C[C@]12C [FLORALGINSENOSIDE TA],Active,4.44,29.8,–
COC(CC[C@](C)(O[C@@H]1O[C@H](CO)[C@@H](O)[C@H](O)[C@H]1O)[C@H]1CC[C@]2(C)[C@@H]1[C@H](O)C[C@@H]1[C@@]3(C)CC[C@H](O)C(C)(C)[C@@H]3[C@@H](O)C[C@]12C)OC [FLORALGINSENOSIDE TB],–,4.00,–,–
C=C(C)C(CC[C@](C)(O[C@@H]1O[C@H](CO[C@@H]2OC[C@H](O)[C@H](O)[C@H]2O)[C@@H](O)[C@H](O)[C@H]1O)[C@H]1CC[C@]2(C)[C@@H]1[C@H](O)C[C@@H]1[C@@]3(C)CC[C@H](O[C@@H]4O[C@H](CO[C@@H]5O[C@H](CO)[C@@H](O)[C@H](O)[C@H]5O)[C@@H](O)[C@H](O)[C@H]4O)C(C)(C)[C@@H]3[C@@H](O)C[C@]12C)OO (some centres undefined) [FLORALGINSENOSIDE TC],–,4.00,–,–
C=C(C)C(CC[C@](C)(O[C@@H]1O[C@H](COC2OC[C@H](O)[C@H](O)[C@H]2O)[C@@H](O)[C@H](O)[C@H]1O)[C@H]1CC[C@]2(C)[C@@H]1[C@H](O)C[C@@H]1[C@@]3(C)CC[C@H](O[C@@H]4O[C@H](COC5O[C@H](CO)[C@@H](O)[C@H](O)[C@H]5O)[C@@H](O)[C@H](O)[C@H]4O)C(C)(C)[C@@H]3[C@@H](O)C[C@]12C)OO (some centres undefined) [FLORALGINSENOSIDE TD],–,4.00,–,–
CC(C)=CCC[C@](C)(O[C@@H]1O[C@H](CO)[C@@H](O)[C@H](O)[C@H]1O)[C@H]1CC[C@]2(C)[C@@H]1[C@H](O)C[C@@H]1[C@@]3(C)CC[C@H](O)C(C)(C)[C@@H]3[C@@H](O)C[C@]12C [GINSENOSIDE F1],Active,4.63,19.2,Active
CC(C)=CCC[C@](C)(O[C@@H]1O[C@H](CO[C@H]2O[C@H](CO)[C@@H](O)[C@@H]2O)[C@@H](O)[C@H](O)[C@H]1O)[C@H]1CC[C@]2(C)[C@@H]1[C@H](O)C[C@@H]1[C@@]3(C)CC[C@H](O)C(C)(C)[C@@H]3[C@@H](O)C[C@]12C [GINSENOSIDE F5],Active,4.20,21.4,–
O=C1c2c(O)ccc(O)c2C(=O)c2c(NCCNCCO)ccc(NCCNCCO)c21 [MITOXANTRONE],–,5.17,–,–
